Reference: publication PMC13385394, “Cryo-EM Structure of the TRPC1/5 Heteromer Enables Design of Antidepressant and Anxiolytic Drug with Reduced Side Effects” (Nature Communications, 2026)
“And” between values parts separate entries of the source, which are not always exact repeats. Equal entries are not always repeated.

How the values were obtained:
Type in all cases: cell-based
[1] = target: T1, TRPC1/5 heteromers (Homo sapiens, UniProt P48995+Q9UL62); assay: Whole-cell patch-clamp, inhibition of EA-activated TRPC1/5 heteromers
T1 construct: wild type plasmids full-length hTRPC1 (WT) and full-length hTRPC5 (WT); expressed in transfected cells; host or cells: HEK293T
T1 sequence (P48995 whole entry, one chain of several): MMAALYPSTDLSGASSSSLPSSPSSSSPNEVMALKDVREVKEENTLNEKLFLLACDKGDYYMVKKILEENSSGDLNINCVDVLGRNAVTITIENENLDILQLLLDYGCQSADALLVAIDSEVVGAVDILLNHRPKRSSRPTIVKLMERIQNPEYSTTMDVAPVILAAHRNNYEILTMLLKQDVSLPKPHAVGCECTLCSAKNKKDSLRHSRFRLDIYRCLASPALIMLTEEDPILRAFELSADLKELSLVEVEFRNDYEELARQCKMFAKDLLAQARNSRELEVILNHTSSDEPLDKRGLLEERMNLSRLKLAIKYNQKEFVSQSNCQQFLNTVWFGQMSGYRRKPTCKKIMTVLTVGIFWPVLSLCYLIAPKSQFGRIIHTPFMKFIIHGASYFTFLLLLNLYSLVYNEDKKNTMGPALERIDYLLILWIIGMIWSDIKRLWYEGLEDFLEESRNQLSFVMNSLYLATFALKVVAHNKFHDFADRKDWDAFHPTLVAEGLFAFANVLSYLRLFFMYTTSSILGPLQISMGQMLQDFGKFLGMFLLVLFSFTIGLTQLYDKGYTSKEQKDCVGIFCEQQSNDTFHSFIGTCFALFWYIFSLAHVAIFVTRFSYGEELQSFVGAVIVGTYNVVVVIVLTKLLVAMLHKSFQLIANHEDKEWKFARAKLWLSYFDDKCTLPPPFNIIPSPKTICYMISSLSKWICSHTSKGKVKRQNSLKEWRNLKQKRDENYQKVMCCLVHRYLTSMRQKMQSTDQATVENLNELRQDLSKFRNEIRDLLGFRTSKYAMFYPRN
Description: The full-length hTRPC5 or truncated mTRPC5, and the full-length hTRPC1 constructs was respectively co-transfected in a plasmid ration 1:3 (w/w) into HEK293T cells (from the ATCC). As previously described, a mCherry was inserted into TRPC5 constructs and a GFP was inserted at the C terminus of TRPC1. Therefore, Cells with red and green fluorescence were selected for whole-cell patch recordings (HEKA EPC10 amplifier, […] software (https://www.heka.com/downloads/downloads_main.html#down_patchmaster)). A 1-s ramp protocol from −100 to +100 mV was applied at a frequency of 0.2 Hz. Signals were sampled at 50 kHz and filtered at 2.9 kHz. The pipette solution contained 130 mM CsCl, 1 mM MgCl2, 5.7 mM CaCl2, 10 mM EGTA, and 10 mM Hepes (calculated free Ca^2+, 200 nM), and the pH was titrated to 7.2 using CsOH[40]. The standard bath solution contained 140 mM NaCl, 5 mM KCl, 1 mM MgCl2, 2 mM CaCl2, 10 mM Hepes, and 10 mM D-glucose, and the pH was adjusted to 7.4 with NaOH (1 M). The recording chamber (150 μL) was perfused at a rate of ~2 mL/min. All recordings were performed at room temperature.

[2] = target: T2, hTRPC5 (Homo sapiens, UniProt Q9UL62); assay: Calcium flux assay (Calcium 5 kit, EA 100 nM), hTRPC5 in HEK293T cells; conditions: calcium flux screening, 10 μM
T2 construct: Full-length, non-tagged hTRPC1 and hTRPC5 constructs are used for calcium flux assays; expressed in transfected cells; host or cells: HEK293T
T2 sequence (Q9UL62 1-973): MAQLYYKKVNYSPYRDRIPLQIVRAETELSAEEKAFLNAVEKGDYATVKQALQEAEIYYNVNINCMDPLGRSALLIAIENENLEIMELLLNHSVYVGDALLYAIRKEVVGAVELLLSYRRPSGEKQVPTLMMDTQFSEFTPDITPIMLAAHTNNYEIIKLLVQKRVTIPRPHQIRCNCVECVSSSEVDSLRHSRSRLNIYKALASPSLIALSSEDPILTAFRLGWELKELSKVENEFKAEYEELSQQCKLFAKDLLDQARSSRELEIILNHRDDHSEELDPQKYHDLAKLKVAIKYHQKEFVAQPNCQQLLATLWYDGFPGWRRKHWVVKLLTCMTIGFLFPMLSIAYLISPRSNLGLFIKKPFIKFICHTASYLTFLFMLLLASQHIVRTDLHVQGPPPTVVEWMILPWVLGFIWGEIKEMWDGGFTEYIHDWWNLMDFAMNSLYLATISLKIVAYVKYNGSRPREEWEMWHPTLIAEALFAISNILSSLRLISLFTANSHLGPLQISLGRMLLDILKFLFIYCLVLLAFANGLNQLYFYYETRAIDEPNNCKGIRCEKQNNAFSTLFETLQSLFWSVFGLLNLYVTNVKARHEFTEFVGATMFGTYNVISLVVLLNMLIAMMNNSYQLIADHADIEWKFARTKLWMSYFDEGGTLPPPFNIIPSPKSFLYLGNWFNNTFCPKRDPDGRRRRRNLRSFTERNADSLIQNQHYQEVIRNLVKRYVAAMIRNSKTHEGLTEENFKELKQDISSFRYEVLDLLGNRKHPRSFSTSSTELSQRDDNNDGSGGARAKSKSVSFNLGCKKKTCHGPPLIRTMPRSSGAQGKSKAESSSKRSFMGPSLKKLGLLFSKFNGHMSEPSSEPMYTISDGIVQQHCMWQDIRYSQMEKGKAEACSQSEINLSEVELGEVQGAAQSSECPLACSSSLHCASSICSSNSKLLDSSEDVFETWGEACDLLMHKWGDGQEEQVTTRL
Procedure: Five minutes before measurement, molecules are added to each well at a final concentration of 10 µM under light-sensitive conditions.

[3] = target: T3, TRPC6 homomer (Homo sapiens, UniProt Q9Y210); assay: Whole-cell patch-clamp, inhibition of TRPC6 homomer
T3 construct: expressed in transfected cells
T3 sequence (Q9Y210 1-931): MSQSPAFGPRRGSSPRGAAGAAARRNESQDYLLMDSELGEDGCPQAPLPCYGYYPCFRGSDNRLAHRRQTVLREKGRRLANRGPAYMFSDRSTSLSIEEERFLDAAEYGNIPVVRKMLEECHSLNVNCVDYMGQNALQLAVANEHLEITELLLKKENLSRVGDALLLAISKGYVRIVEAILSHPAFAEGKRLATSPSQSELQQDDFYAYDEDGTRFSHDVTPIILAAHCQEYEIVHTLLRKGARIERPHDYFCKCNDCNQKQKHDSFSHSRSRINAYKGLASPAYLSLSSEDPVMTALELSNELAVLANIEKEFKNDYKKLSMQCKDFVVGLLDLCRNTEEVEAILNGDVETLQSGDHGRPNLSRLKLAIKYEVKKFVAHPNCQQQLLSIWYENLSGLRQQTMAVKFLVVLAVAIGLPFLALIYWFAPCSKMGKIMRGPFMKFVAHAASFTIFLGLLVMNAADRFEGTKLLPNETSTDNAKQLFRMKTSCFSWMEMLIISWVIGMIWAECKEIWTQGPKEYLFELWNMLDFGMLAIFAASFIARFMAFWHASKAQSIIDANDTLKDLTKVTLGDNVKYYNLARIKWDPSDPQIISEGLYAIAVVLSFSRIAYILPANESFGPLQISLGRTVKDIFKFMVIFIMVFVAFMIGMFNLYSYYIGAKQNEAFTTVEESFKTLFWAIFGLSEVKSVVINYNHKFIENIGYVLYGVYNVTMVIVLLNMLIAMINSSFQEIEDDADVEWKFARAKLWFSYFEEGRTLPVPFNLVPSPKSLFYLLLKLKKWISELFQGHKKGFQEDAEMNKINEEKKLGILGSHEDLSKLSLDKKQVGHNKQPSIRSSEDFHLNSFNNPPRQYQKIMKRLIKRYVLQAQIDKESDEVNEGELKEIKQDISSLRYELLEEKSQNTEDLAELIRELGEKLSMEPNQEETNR
Description: Error bars represent the standard error of the mean (SEM, n = 6 independent
Error bars represent the standard error of the
110 mean (SEM, n = 5 independent cells).

With `CN(C)CCCCn1c(=O)c2c(nc(Oc3cccc(Cl)c3)n2Cc2ccc(Cl)cc2)n(C)c1=O` [H08] the “Hill coefficient, TRPC1/C5 heteromer” value ([1]; combined fitting with additional 0.01 nM and 0.001 nM points (rebuttal)) was “approximately 0.33”, the IC50 ([1]; whole-cell patch-clamp, read-out: IC50, TRPC1/C5) was 0.239 nM and 0.2 nM and the “inhibitory activity toward TRPC5 homomers (in words)” value [2] was “minimal effect”. The IC50 [3] was over 10000 nM, the inhibition at 10 µM ([3]; 10 μM) was 30 to 40% and the “inhibition of TRPC6” value ([3]; 10 μM) was “no more than 40%”.
